Source: US11767322B2 (BRISTOL-MYERS SQUIBB COMPANY, priority 2020, dated 2023)
Like-named read-outs stand apart in the source and are kept apart here.

How the values were obtained:
[1] = target: T1, His-GST-TVMV-hRIPK1(1-324) (Homo sapiens, UniProt Q13546); experiment: biochemical; type: binding
T1 construct: The coding region of human RIPK1(1-324) flanked by NdeI site at 5′ end; made in house; host or cells: Spodoptera frugiperda Sf9 insect cells (baculovirus, Bac-to-Bac)
T1 sequence (Q13546 1-324): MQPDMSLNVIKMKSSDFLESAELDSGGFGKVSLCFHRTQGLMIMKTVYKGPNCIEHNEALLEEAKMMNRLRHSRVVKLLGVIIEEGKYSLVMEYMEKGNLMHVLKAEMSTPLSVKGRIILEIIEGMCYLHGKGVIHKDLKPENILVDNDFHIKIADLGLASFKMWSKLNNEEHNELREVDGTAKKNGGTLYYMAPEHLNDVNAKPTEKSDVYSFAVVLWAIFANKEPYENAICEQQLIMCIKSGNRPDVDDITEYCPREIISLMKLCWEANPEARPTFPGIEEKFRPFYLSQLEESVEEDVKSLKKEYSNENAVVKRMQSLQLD

[2] = tested on: MLKL phosphorylation in HT29-L23 human colorectal adenocarcinoma cells; experiment: MLKL phosphorylation high-content assay; type: cell-based
[3] = HTRF probe displacement, 1 h at rt, read-out: RIPK1 IC50
[4] = read-out: pMLKL IC50, HT29-L23 cells, necroptosis induced with TNFα, SMAC mimetic and Z-VAD, 6 h, maximal inhibition defined by Nec1s
[5] = Homo sapiens, 6 h, read-out: pMLKL IC50, HT29-L23 cells, necroptosis induced with TNFα, SMAC mimetic and Z-VAD, 6 h, maximal inhibition defined by Nec1s
[6] = Table 22, compounds of the present invention, read-out: RPIK1 IC50
[7] = read-out: pMLKL IC50, Table 22, compounds of the present invention

Row | SMILES | IC50 [1, 3] | IC50 [2, 4] | IC50 [2, 5] | IC50 [1, 6] | IC50 [2, 7]
1 | Cc1cc(F)c(-c2ccn3nc(N)nc3c2)cc1C(=O)NCC(F)(F)C(C)(O)c1ccc(Cl)cc1 (single isomer, unassigned) [Example 226, 5-(2-amino-[1,2,4]triazolo[1,5-a]pyridin-7-yl)-N-(3-(4-chlorophenyl)-2,2-difluoro-3-hydroxybutyl)-4-fluoro-2-methylbenzamide] | 8.3 nM | 2.2 nM |  |  | 
2 | COC(c1ccc(F)cc1)C(F)(F)CNC(=O)c1c(C)ccc(-c2ccn3nc(N)nc3c2)c1F (single isomer, unassigned) [Example 233, 3-(2-amino-[1,2,4]triazolo[1,5-a]pyridin-7-yl)-N-(2,2-difluoro-3-(4-fluorophenyl)-3-methoxypropyl)-2-fluoro-6-methylbenzamide] | 2.6 nM | 0.5 nM |  |  | 
3 | COC(c1ccc(F)cc1)C(F)(F)CNC(=O)c1c(C)ccc(-c2ccn3nc(N)nc3c2)c1F (single isomer, unassigned) [Example 234, 3-(2-amino-[1,2,4]triazolo[1,5-a]pyridin-7-yl)-N-(2,2-difluoro-3-(4-fluorophenyl)-3-methoxypropyl)-2-fluoro-6-methylbenzamide] | 8.4 nM | 3 nM |  |  | 
4 | [2H]C([2H])([2H])OC(c1ccc(F)cc1)C(F)(F)CNC(=O)c1c(C)ccc(-c2ccn3nc(N)nc3c2)c1F (single isomer, unassigned) [Example 235, 3-(2-amino-[1,2,4]triazolo[1,5-a]pyridin-7-yl)-N-(2,2-difluoro-3-(4-fluorophenyl)-3-(methoxy-d3)propyl)-2-fluoro-6-methylbenzamide] | 4.3 nM |  | 0.6 nM |  | 
5 | [2H]C([2H])([2H])OC(c1ccc(F)cc1)C(F)(F)CNC(=O)c1c(C)ccc(-c2ccn3nc(N)nc3c2)c1F (single isomer, unassigned) [Example 236, 3-(2-amino-[1,2,4]triazolo[1,5-a]pyridin-7-yl)-N-(2,2-difluoro-3-(4-fluorophenyl)-3-(methoxy-d3)propyl)-2-fluoro-6-methylbenzamide] | 3.4 nM | 0.9 nM |  |  | 
6 | [2H]C([2H])([2H])c1ccc(-c2ccn3nc(N)nc3c2)c(F)c1C(=O)NCC(F)(F)C(C)(O)c1ccc(F)cc1 (single isomer, unassigned) [Example 241, 3-(2-amino-[1,2,4]triazolo[1,5-a]pyridin-7-yl)-N-(2,2-difluoro-3-(4-fluorophenyl)-3-hydroxybutyl)-2-fluoro-6-(methyl-d3)benzamide] | 10 nM |  | 1.2 nM |  | 
7 | [2H]C([2H])([2H])c1ccc(-c2ccn3nc(N)nc3c2)c(F)c1C(=O)NCC(F)(F)C(C)(O)c1ccc(F)cc1 (single isomer, unassigned) [Example 242, 3-(2-amino-[1,2,4]triazolo[1,5-a]pyridin-7-yl)-N-(2,2-difluoro-3-(4-fluorophenyl)-3-hydroxybutyl)-2-fluoro-6-(methyl-d3)benzamide] | 9.1 nM | 1 nM |  |  | 
8 | [2H]C([2H])([2H])c1ccc(-c2ccn3nc(N)nc3c2)c(F)c1C(=O)NCC(F)(F)C(O)(c1ccc(F)cc1)C([2H])([2H])[2H] (single isomer, unassigned) [Example 243, 3-(2-amino-[1,2,4]triazolo[1,5-a]pyridin-7-yl)-N-(2,2-difluoro-3-(4-fluorophenyl)-3-hydroxybutyl-4,4,4-d3)-2-fluoro-6-(methyl-d3)benzamide] | 4.7 nM |  | 1.2 nM |  | 
9 | [2H]C([2H])([2H])c1ccc(-c2ccn3nc(N)nc3c2)c(F)c1C(=O)NCC(F)(F)C(O)(c1ccc(F)cc1)C([2H])([2H])[2H] (single isomer, unassigned) [Example 244, 3-(2-amino-[1,2,4]triazolo[1,5-a]pyridin-7-yl)-N-(2,2-difluoro-3-(4-fluorophenyl)-3-hydroxybutyl-4,4,4-d3)-2-fluoro-6-(methyl-d3)benzamide] | 2.7 nM | 1.2 nM |  |  | 
10 | [2H]C([2H])([2H])c1ccc(-c2ccn3nc(N)nc3c2)c(F)c1C(=O)NCC(F)(F)C(C)(O)c1ccc(Cl)cc1 (single isomer, unassigned) [Example 252, 3-(2-amino-[1,2,4]triazolo[1,5-a]pyridin-7-yl)-N-(3-(4-chlorophenyl)-2,2-difluoro-3-hydroxybutyl)-2-fluoro-6-(methyl-d3)benzamide] | 7.2 nM | 2.7 nM |  |  | 
11 | [2H]C([2H])([2H])c1ccc(-c2ccn3nc(N)nc3c2)c(F)c1C(=O)NCC(F)(F)C(C)(O)c1ccc(Cl)cc1 (single isomer, unassigned) [Example 253, 3-(2-amino-[1,2,4]triazolo[1,5-a]pyridin-7-yl)-N-(3-(4-chlorophenyl)-2,2-difluoro-3-hydroxybutyl)-2-fluoro-6-(methyl-d3)benzamide] | 2.4 nM | 1.2 nM |  |  | 
12 | Nc1nc2cc(-c3ccc(Cl)c(C(=O)NCC(F)(F)C(O)c4cccc(C(F)(F)F)n4)c3F)ccn2n1 (single isomer, unassigned) [Example 254, 3-(2-amino-[1,2,4]triazolo[1,5-a]pyridin-7-yl)-6-chloro-N-(2,2-difluoro-3-hydroxy-3-(6-(trifluoromethyl)pyridin-2-yl)propyl)-2-fluorobenzamide] | 3.5 nM | 4.1 nM |  |  | 
13 | Nc1nc2cc(-c3ccc(Cl)c(C(=O)NCC(F)(F)C(O)c4cccc(C(F)(F)F)n4)c3F)ccn2n1 (single isomer, unassigned) [Example 255, 3-(2-amino-[1,2,4]triazolo[1,5-a]pyridin-7-yl)-6-chloro-N-(2,2-difluoro-3-hydroxy-3-(6-(trifluoromethyl)pyridin-2-yl)propyl)-2-fluorobenzamide] | 17 nM | 79 nM |  |  | 
14 | Cc1ccc(-c2ccn3nc(N)nc3c2)c(F)c1C(=O)NCC(F)(F)C(O)c1ccnc(C(F)(F)F)c1 (single isomer, unassigned) [Example 260, 3-(2-amino-[1,2,4]triazolo[1,5-a]pyridin-7-yl)-N-(2,2-difluoro-3-hydroxy-3-(2-(trifluoromethyl)pyridin-4-yl)propyl)-2-fluoro-6-methylbenzamide] | 8.4 nM | 3.2 nM |  |  | 
15 | Cc1ccc(-c2ccn3nc(N)nc3c2)c(F)c1C(=O)NCC(F)(F)C(O)c1ccnc(C(F)(F)F)c1 (single isomer, unassigned) [Example 261, 3-(2-amino-[1,2,4]triazolo[1,5-a]pyridin-7-yl)-N-(2,2-difluoro-3-hydroxy-3-(2-(trifluoromethyl)pyridin-4-yl)propyl)-2-fluoro-6-methylbenzamide] | 40 nM | 79 nM |  |  | 
16 | Nc1nc2cc(-c3ccc(Cl)c(C(=O)NCC(F)(F)C(O)c4cccc(Cl)n4)c3F)ccn2n1 (single isomer, unassigned) [Example 262, 3-(2-amino-[1,2,4]triazolo[1,5-a]pyridin-7-yl)-6-chloro-N-(3-(6-chloropyridin-2-yl)-2,2-difluoro-3-hydroxypropyl)-2-fluorobenzamide] | 14 nM |  | 45 nM |  | 
17 | Nc1nc2cc(-c3ccc(Cl)c(C(=O)NCC(F)(F)C(O)c4cccc(Cl)n4)c3F)ccn2n1 (single isomer, unassigned) [Example 263, 3-(2-amino-[1,2,4]triazolo[1,5-a]pyridin-7-yl)-6-chloro-N-(3-(6-chloropyridin-2-yl)-2,2-difluoro-3-hydroxypropyl)-2-fluorobenzamide] | 21 nM | 48 nM |  |  | 
18 | Cc1ccc(-c2ccn3nc(N)nc3c2)c(F)c1C(=O)NCC(F)(F)C(O)c1c(F)cc(F)cc1F (single isomer, unassigned) [Example 283, 3-(2-amino-[1,2,4]triazolo[1,5-a]pyridin-7-yl)-N-(2,2-difluoro-3-hydroxy-3-(2,4,6-trifluorophenyl)propyl)-2-fluoro-6-methylbenzamide] | 0.5 nM |  | 1 nM |  | 
19 | Cc1ccc(-c2ccn3nc(N)nc3c2)c(F)c1C(=O)NCC(F)(F)C(O)c1c(F)cc(F)cc1F (single isomer, unassigned) [Example 284, 3-(2-amino-[1,2,4]triazolo[1,5-a]pyridin-7-yl)-N-(2,2-difluoro-3-hydroxy-3-(2,4,6-trifluorophenyl)propyl)-2-fluoro-6-methylbenzamide] | 3.5 nM | 1.1 nM |  |  | 
20 | Cc1ccc(-c2ccn3nc(N)nc3c2)c(F)c1C(=O)NCC(O)C(F)(F)c1ccc(F)cc1 (single isomer, unassigned) [Example 290, 3-(2-amino-[1,2,4]triazolo[1,5-a]pyridin-7-yl)-N-(3,3-difluoro-3-(4-fluorophenyl)-2-hydroxypropyl)-2-fluoro-6-methylbenzamide] | 4.8 nM | 0.5 nM |  | 4.8 nM | 0.5 nM
21 | Cc1ccc(-c2ccn3nc(N)nc3c2)c(F)c1C(=O)NCC(O)C(F)(F)c1ccc(F)cc1 (single isomer, unassigned) [Example 291, 3-(2-amino-[1,2,4]triazolo[1,5-a]pyridin-7-yl)-N-(3,3-difluoro-3-(4-fluorophenyl)-2-hydroxypropyl)-2-fluoro-6-methylbenzamide] | 1 nM | 2.4 nM |  | 1 nM | 2.4 nM
